{"source": "PubChem BioAssay AID1259409", "about": "(Chemical Carcinogenesis Research Information System (CCRIS), 2018)", "origin": "cited, not measured here", "tested_on": "rodent chemically induced tumor inhibition, incidence and multiplicity", "assay": "CCRIS tumor inhibitor studies", "data": [{"smiles": "CCCCC(=O)O[C@H]1CC[C@H]2[C@@H]3CCc4cc(O)ccc4[C@H]3CC[C@]12C", "values": [{"measurement": "tumour outcome (control, treated, inhibition, significance)", "setting": "Carcinogen: DIMETHYLNITROSAMINE, 62-75-9, Dose [Inhibitor]: 1 MG IN CASTOR OIL ADMINISTERED TO IMMATURE RATS 1/4 WK FOR LIFE BEGINNING 100 D POST CARCINOGEN DOSE (STUDY DURATION: 1, Route [Inhibitor]: SUBCUTANEOUS, Species: RAT, Strain/Sex: STRAIN-CD/MALE, Target Tissue: Type of Lesion: KIDNEY TUBULE: ADENOMA, Dose [Carcinogen]: 30 MG/KG IN DISTILLED WATER ONCE, Promoter: NONE USED", "value": "15/28 (54%), 9/25 (36%), 33%, not calculated"}, {"measurement": "tumour outcome (control, treated, inhibition, significance)", "setting": "Carcinogen: DIMETHYLNITROSAMINE, 62-75-9, Dose [Inhibitor]: 1 MG IN CASTOR OIL ADMINISTERED TO IMMATURE RATS 1/4 WK FOR LIFE BEGINNING 100 D POST CARCINOGEN DOSE (STUDY DURATION: 1, Route [Inhibitor]: SUBCUTANEOUS, Species: RAT, Strain/Sex: STRAIN-CD/MALE, Target Tissue: Type of Lesion: KIDNEY: MESENCHYMAL TUMOR, Dose [Carcinogen]: 30 MG/KG IN DISTILLED WATER ONCE, Promoter: NONE USED", "value": "16/28 (57%), 14/25 (56%), 2%, not significant"}, {"measurement": "tumour outcome (control, treated, inhibition, significance)", "setting": "Carcinogen: DIMETHYLNITROSAMINE, 62-75-9, Dose [Inhibitor]: 1 MG IN CASTOR OIL ADMINISTERED TO IMMATURE RATS 1/4 WK FOR LIFE BEGINNING 100 D POST CARCINOGEN DOSE (STUDY DURATION: 1, Route [Inhibitor]: SUBCUTANEOUS, Species: RAT, Strain/Sex: STRAIN-CD/MALE, Target Tissue: Type of Lesion: KIDNEY: TRANSITIONAL CELL TUMOR, Dose [Carcinogen]: 30 MG/KG IN DISTILLED WATER ONCE, Promoter: NONE USED", "value": "1/28 (4%), 0/25 (0%), 100%, not significant"}, {"measurement": "tumour outcome (control, treated, inhibition, significance)", "setting": "Carcinogen: DIMETHYLNITROSAMINE, 62-75-9, Dose [Inhibitor]: 1 MG IN CASTOR OIL ADMINISTERED TO IMMATURE RATS 1/4 WK FOR LIFE BEGINNING 100 D POST CARCINOGEN DOSE (STUDY DURATION: 1, Route [Inhibitor]: SUBCUTANEOUS, Species: RAT, Strain/Sex: STRAIN-CD/MALE, Target Tissue: Type of Lesion: LUNG: ALVEOGENIC TUMOR, Dose [Carcinogen]: 30 MG/KG IN DISTILLED WATER ONCE, Promoter: NONE USED", "value": "19/28 (68%), 6/25 (24%), 65%, p<0.001"}, {"measurement": "tumour outcome (control, treated, inhibition, significance)", "setting": "Carcinogen: DIMETHYLNITROSAMINE, 62-75-9, Dose [Inhibitor]: 1 MG IN CASTOR OIL ADMINISTERED TO MATURE RATS 1/4 WK FOR LIFE BEGINNING 100 D POST CARCINOGEN DOSE (STUDY DURATION: 140, Route [Inhibitor]: SUBCUTANEOUS, Species: RAT, Strain/Sex: STRAIN-CD/MALE, Target Tissue: Type of Lesion: KIDNEY TUBULE: ADENOMA, Dose [Carcinogen]: 30 MG/KG IN DISTILLED WATER ONCE, Promoter: NONE USED", "value": "16/26 (62%), 18/28 (64%), -3%, not significant"}, {"measurement": "tumour outcome (control, treated, inhibition, significance)", "setting": "Carcinogen: DIMETHYLNITROSAMINE, 62-75-9, Dose [Inhibitor]: 1 MG IN CASTOR OIL ADMINISTERED TO MATURE RATS 1/4 WK FOR LIFE BEGINNING 100 D POST CARCINOGEN DOSE (STUDY DURATION: 140, Route [Inhibitor]: SUBCUTANEOUS, Species: RAT, Strain/Sex: STRAIN-CD/MALE, Target Tissue: Type of Lesion: LUNG: ALVEOGENIC TUMOR, Dose [Carcinogen]: 30 MG/KG IN DISTILLED WATER ONCE, Promoter: NONE USED", "value": "13/26 (50%), 3/28 (11%), 78%, p<0.05"}]}, {"smiles": "C#CCCc1ccccc1", "values": [{"measurement": "tumour outcome (control, treated, inhibition, significance)", "setting": "Carcinogen: 4-(METHYLNITROSAMINO)-1-(3-PYRIDYL)-1-BUTANONE, 64091-91-4, Dose [Inhibitor]: 0, 5 UMOL IN 0.1 ML CORN OIL ONCE 2 HR PRIOR TO CARCINOGEN DOSE (STUDY DURATION: 16 WK), Route [Inhibitor]: GAVAGE, Species: MOUSE, Strain/Sex: STRAIN-A/FEMALE, Target Tissue: Type of Lesion: LUNG: ADENOMA, Dose [Carcinogen]: 10 UMOL IN 0.1 ML SALINE ONCE, Promoter: NONE USED", "value": "100%, 60%, 40%, p<0.01"}]}, {"smiles": "Brc1c(Br)c(Br)c2c(c1Br)Oc1c(Br)c(Br)c(Br)c(Br)c1O2", "values": [{"measurement": "tumour outcome (control, treated, inhibition, significance)", "setting": "Carcinogen: 7,12-DIMETHYLBENZ[A]ANTHRACENE, 57-97-6, Dose [Inhibitor]: 0, 17 NMOL 2/WK APPLIED 1 HR PRIOR TO EACH PROMOTER DOSE FOR 20 WK (STUDY DURATION: 21 WK), Route [Inhibitor]: DERMAL, Species: MOUSE, Target Tissue: Type of Lesion: SKIN: TUMOR, Dose [Carcinogen]: 390 NMOL ONCE, Promoter: 12-O-TETRADECANOYLPHORBOL-13-ACETATE, 16561-29-8", "value": "100%, 93%, 7%, not calculated"}]}, {"smiles": "C/C(=C\\c1ccc2c(c1)C(C)(C)CCC2(C)C)c1ccc(C(=O)O)cc1", "values": [{"measurement": "tumour outcome (control, treated, inhibition, significance)", "setting": "Carcinogen: 7,12-DIMETHYLBENZ[A]ANTHRACENE, 57-97-6, Dose [Inhibitor]: 0.17 NMOL IN 0.2 ML ACETONE 1 HR PRIOR TO EACH PROMOTER DOSE FOR 12 WK (STUDY DURATION: 14 WK), Route [Inhibitor]: DERMAL, Species: MOUSE, Strain/Sex: SENCAR/FEMALE, Target Tissue: Type of Lesion: SKIN: PAPILLOMA, Dose [Carcinogen]: 200 NMOL IN 0.2 ML ACETONE ONCE, Promoter: 12-O-TETRADECANOYLPHORBOL-13-ACETATE, 16561-29-8", "value": "100%, 93%, 7%, not calculated"}, {"measurement": "tumour outcome (control, treated, inhibition, significance)", "setting": "Carcinogen: 7,12-DIMETHYLBENZ[A]ANTHRACENE, 57-97-6, Dose [Inhibitor]: 0.17 NMOL IN 0.2 ML ACETONE 1 HR PRIOR TO EACH PROMOTER DOSE FOR 20 WK (STUDY DURATION: 22 WK), Route [Inhibitor]: DERMAL, Species: MOUSE, Strain/Sex: CD-1/FEMALE, Target Tissue: Type of Lesion: SKIN: PAPILLOMA, Dose [Carcinogen]: 200 NMOL IN 0.2 ML ACETONE ONCE, Promoter: 12-O-TETRADECANOYLPHORBOL-13-ACETATE, 16561-29-8", "value": "94%, 87%, 8%, not calculated"}, {"measurement": "tumour outcome (control, treated, inhibition, significance)", "setting": "Carcinogen: 7,12-DIMETHYLBENZ[A]ANTHRACENE, 57-97-6, Dose [Inhibitor]: 1.7 NMOL IN 0.2 ML ACETONE 1 HR PRIOR TO EACH PROMOTER DOSE FOR 12 WK (STUDY DURATION: 14 WK), Route [Inhibitor]: DERMAL, Species: MOUSE, Strain/Sex: SENCAR/FEMALE, Target Tissue: Type of Lesion: SKIN: PAPILLOMA, Dose [Carcinogen]: 200 NMOL IN 0.2 ML ACETONE ONCE, Promoter: 12-O-TETRADECANOYLPHORBOL-13-ACETATE, 16561-29-8", "value": "100%, 97%, 3%, not calculated"}, {"measurement": "tumour outcome (control, treated, inhibition, significance)", "setting": "Carcinogen: 7,12-DIMETHYLBENZ[A]ANTHRACENE, 57-97-6, Dose [Inhibitor]: 1.7 NMOL IN 0.2 ML ACETONE 1 HR PRIOR TO EACH PROMOTER DOSE FOR 20 WK (STUDY DURATION: 22 WK), Route [Inhibitor]: DERMAL, Species: MOUSE, Strain/Sex: CD-1/FEMALE, Target Tissue: Type of Lesion: SKIN: PAPILLOMA, Dose [Carcinogen]: 200 NMOL IN 0.2 ML ACETONE ONCE, Promoter: 12-O-TETRADECANOYLPHORBOL-13-ACETATE, 16561-29-8", "value": "94%, 69%, 27%, not calculated"}, {"measurement": "tumour outcome (control, treated, inhibition, significance)", "setting": "Carcinogen: 7,12-DIMETHYLBENZ[A]ANTHRACENE, 57-97-6, Dose [Inhibitor]: 17 NMOL IN 0.2 ML ACETONE 1 HR PRIOR TO EACH PROMOTER DOSE FOR 12 WK (STUDY DURATION: 14 WK), Route [Inhibitor]: DERMAL, Species: MOUSE, Strain/Sex: SENCAR/FEMALE, Target Tissue: Type of Lesion: SKIN: PAPILLOMA, Dose [Carcinogen]: 200 NMOL IN 0.2 ML ACETONE ONCE, Promoter: 12-O-TETRADECANOYLPHORBOL-13-ACETATE, 16561-29-8", "value": "100%, 3%, 97%, not calculated"}, {"measurement": "tumour outcome (control, treated, inhibition, significance)", "setting": "Carcinogen: 7,12-DIMETHYLBENZ[A]ANTHRACENE, 57-97-6, Dose [Inhibitor]: 17 NMOL IN 0.2 ML ACETONE 1 HR PRIOR TO EACH PROMOTER DOSE FOR 20 WK (STUDY DURATION: 22 WK), Route [Inhibitor]: DERMAL, Species: MOUSE, Strain/Sex: CD-1/FEMALE, Target Tissue: Type of Lesion: SKIN: PAPILLOMA, Dose [Carcinogen]: 200 NMOL IN 0.2 ML ACETONE ONCE, Promoter: 12-O-TETRADECANOYLPHORBOL-13-ACETATE, 16561-29-8", "value": "94%, 0%, 100%, not calculated"}]}, {"smiles": "c1cc2ccc3ccc4ccc5cccc6c(c1)c2c3c4c56", "values": [{"measurement": "tumour outcome (control, treated, inhibition, significance)", "setting": "Carcinogen: BENZO[A]PYRENE, 50-32-8, Dose [Inhibitor]: 7 UG IN 0.1 ML ACETONE 3/WK ADMINISTERED SIMULTANEOUSLY WITH CARCINOGEN FOR DURATION OF STUDY (STUDY DURATION: 368 D), Route [Inhibitor]: DERMAL, Species: MOUSE, Strain/Sex: ICR/FEMALE, Target Tissue: Type of Lesion: SKIN: PAPILLOMA, Dose [Carcinogen]: 5 UG IN 0.1 ML ACETONE 3/WK FOR DURATION OF STUDY, Promoter: NONE USED", "value": "14/50 (28%), 19/50 (38%), -36%, not calculated"}, {"measurement": "tumour outcome (control, treated, inhibition, significance)", "setting": "Carcinogen: BENZO[A]PYRENE, 50-32-8, Dose [Inhibitor]: 7 UG IN 0.1 ML ACETONE 3/WK ADMINISTERED SIMULTANEOUSLY WITH CARCINOGEN FOR DURATION OF STUDY (STUDY DURATION: 368 D), Route [Inhibitor]: DERMAL, Species: MOUSE, Strain/Sex: ICR/FEMALE, Target Tissue: Type of Lesion: SKIN: SQUAMOUS CARCINOMA, Dose [Carcinogen]: 5 UG IN 0.1 ML ACETONE 3/WK FOR DURATION OF STUDY, Promoter: NONE USED", "value": "10/50 (20%), 10/50 (20%), 0%, not calculated"}, {"measurement": "tumour outcome (control, treated, inhibition, significance)", "setting": "Carcinogen: BENZO[A]PYRENE, 50-32-8, Dose [Inhibitor]: 21 UG IN 0.1 ML ACETONE 3/WK ADMINISTERED SIMULTANEOUSLY WITH CARCINOGEN FOR DURATION OF STUDY (STUDY DURATION: 368 D), Route [Inhibitor]: DERMAL, Species: MOUSE, Strain/Sex: ICR/FEMALE, Target Tissue: Type of Lesion: SKIN: PAPILLOMA, Dose [Carcinogen]: 5 UG IN 0.1 ML ACETONE 3/WK FOR DURATION OF STUDY, Promoter: NONE USED", "value": "14/50 (28%), 20/50 (40%), -43%, not calculated"}, {"measurement": "tumour outcome (control, treated, inhibition, significance)", "setting": "Carcinogen: BENZO[A]PYRENE, 50-32-8, Dose [Inhibitor]: 21 UG IN 0.1 ML ACETONE 3/WK ADMINISTERED SIMULTANEOUSLY WITH CARCINOGEN FOR DURATION OF STUDY (STUDY DURATION: 368 D), Route [Inhibitor]: DERMAL, Species: MOUSE, Strain/Sex: ICR/FEMALE, Target Tissue: Type of Lesion: SKIN: SQUAMOUS CARCINOMA, Dose [Carcinogen]: 5 UG IN 0.1 ML ACETONE 3/WK FOR DURATION OF STUDY, Promoter: NONE USED", "value": "10/50 (20%), 18/50 (36%), -80%, not calculated"}]}]}
